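Cells were grown in 96-well plates and exposed to each compound for 48 hours at five concentrations; endpoints were interpolated linearly between bracketing concentrations, or set to the highest concentration if not reached. Here, GI50 denotes the concentration required for 50% inhibition of growth.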 The source made the active and inactive calls. Cut-off read from the data, not from the text of the source: active = GI50 up to about 1.1 µM and inactive = higher.
What was measured:
Experiment in all cases: NCI-60 cell line screen, 48 h
786-0 = test system: 786-0
A498 = test system: A498
A549 = test system: A549
ACHN = test system: ACHN
BT-549 = test system: BT-549
CAKI-1 = test system: CAKI-1
CCRF-CEM = test system: CCRF-CEM
COLO 205 = test system: COLO 205
DU-145 = test system: DU-145
EKVX = test system: EKVX
HCC 2998 = test system: HCC 2998
HCT-116 = test system: HCT-116
HCT-15 = test system: HCT-15
HOP-62 = test system: HOP-62
HOP-92 = test system: HOP-92
HT-29 = test system: HT-29
Hs-578T = test system: Hs-578T
IGROV-1 = test system: IGROV-1
K562 = test system: K562
KM12 = test system: KM12
LOX IMVI = test system: LOX IMVI
M14 = test system: M14
MCF7 = test system: MCF7
MDA-MB-231 = test system: MDA-MB-231
MDA-MB-435 = test system: MDA-MB-435
MDA-N = test system: MDA-N
MOLT-4 = test system: MOLT-4
Malme-3M = test system: Malme-3M
NCI-H226 = test system: NCI-H226
NCI-H23 = test system: NCI-H23
NCI-H460 = test system: NCI-H460
NCI-H522 = test system: NCI-H522
NCI/ADR-RES = test system: NCI/ADR-RES
OVCAR-3 = test system: OVCAR-3
OVCAR-4 = test system: OVCAR-4
OVCAR-5 = test system: OVCAR-5
OVCAR-8 = test system: OVCAR-8
PC-3 = test system: PC-3
RPMI-8226 = test system: RPMI-8226
RXF 393 = test system: RXF 393
SF-268 = test system: SF-268
SF-295 = test system: SF-295
SF-539 = test system: SF-539
SK-MEL-28 = test system: SK-MEL-28
SK-MEL-2 = test system: SK-MEL-2
SK-MEL-5 = test system: SK-MEL-5
SK-OV-3 = test system: SK-OV-3
SN12C = test system: SN12C
SNB-19 = test system: SNB-19
SNB-75 = test system: SNB-75
SR = test system: SR
SW-620 = test system: SW-620
T47D = test system: T47D
TK-10 = test system: TK-10
U-251 = test system: U-251
UACC-257 = test system: UACC-257
UACC-62 = test system: UACC-62
UO-31 = test system: UO-31
HL-60 = test system: HL-60

Measured: GI50

C/N=c1\sc2c(n1C)C(=O)c1ccccc1C2=O
2.03 µM: HCT-15
active: MDA-MB-435 0.192 µM | MDA-N 0.222 µM | Malme-3M 0.331 µM | NCI-H23 0.566 µM
inactive: 786-0 6.79 µM | A498 15.7 µM | A549 1.93 µM | ACHN 5.81 µM | BT-549 1.76 µM | CAKI-1 8.41 µM | CCRF-CEM 4.15 µM | COLO 205 5.3 µM | DU-145 1.66 µM | EKVX 10.7 µM | HCC 2998 7.73 µM | HCT-116 2.85 µM | HOP-62 1.76 µM | HOP-92 10.3 µM | HT-29 3.04 µM | Hs-578T 2.39 µM | IGROV-1 6.78 µM | K562 3.37 µM | KM12 3.37 µM | LOX IMVI 1.27 µM | M14 1.5 µM | MCF7 1.65 µM | MDA-MB-231 12.2 µM | MOLT-4 5.15 µM | NCI-H226 2.34 µM | NCI-H460 2.62 µM | NCI-H522 9.31 µM | NCI/ADR-RES 3.95 µM | OVCAR-3 3.44 µM | OVCAR-4 5.43 µM | OVCAR-5 3.99 µM | OVCAR-8 3.2 µM | PC-3 3.96 µM | RPMI-8226 4.14 µM | RXF 393 3.08 µM | SF-268 3.85 µM | SF-295 1.54 µM | SF-539 2.01 µM | SK-MEL-28 1.96 µM | SK-MEL-2 2.08 µM | SK-MEL-5 1.27 µM | SK-OV-3 31.2 µM | SN12C 1.64 µM | SNB-19 3.4 µM | SNB-75 2.06 µM | SR 3.75 µM | SW-620 2.09 µM | T47D 3.78 µM | TK-10 14.6 µM | U-251 2.55 µM | UACC-257 1.53 µM | UACC-62 2.11 µM | UO-31 7.45 µM

CCn1c(SCC(=O)NNC(=S)NC)nc2ccccc2c1=O
inactive: 786-0 > 100 µM | A498 69 µM | A549 88.9 µM | ACHN > 100 µM | BT-549 68.1 µM | CAKI-1 24.1 µM | CCRF-CEM > 100 µM | COLO 205 > 100 µM | DU-145 > 100 µM | EKVX > 100 µM | HCC 2998 > 100 µM | HCT-116 > 100 µM | HL-60 > 100 µM | HOP-62 > 100 µM | Hs-578T > 100 µM | IGROV-1 > 100 µM | K562 > 100 µM | KM12 > 100 µM | LOX IMVI > 100 µM | M14 > 100 µM | MCF7 > 100 µM | MDA-MB-231 > 100 µM | MDA-MB-435 > 100 µM | MDA-N > 100 µM | MOLT-4 > 100 µM | Malme-3M > 100 µM | NCI-H226 > 100 µM | NCI-H23 > 100 µM | NCI-H460 18.6 µM | NCI-H522 > 100 µM | NCI/ADR-RES > 100 µM | OVCAR-3 > 100 µM | OVCAR-4 76.4 µM | OVCAR-5 > 100 µM | OVCAR-8 > 100 µM | PC-3 96.8 µM | RPMI-8226 53 µM | RXF 393 34 µM | SF-268 > 100 µM | SF-295 > 100 µM | SF-539 > 100 µM | SK-MEL-28 > 100 µM | SK-MEL-2 > 100 µM | SK-MEL-5 > 100 µM | SK-OV-3 > 100 µM | SN12C > 100 µM | SNB-19 > 100 µM | SNB-75 > 100 µM | SR > 100 µM | SW-620 > 100 µM | T47D > 100 µM | TK-10 49 µM | U-251 > 100 µM | UACC-257 > 100 µM | UACC-62 > 100 µM | UO-31 62.2 µM
> 100 µM: HCT-15

CC(=O)/C(=C\NC(N)=S)C(=O)Nc1ccccc1C
inactive: 786-0 > 100 µM | A498 > 100 µM | A549 > 100 µM | ACHN > 100 µM | BT-549 > 100 µM | CAKI-1 > 100 µM | CCRF-CEM > 100 µM | COLO 205 > 100 µM | DU-145 > 100 µM | EKVX > 100 µM | HCC 2998 > 100 µM | HCT-116 > 100 µM | HOP-62 > 100 µM | HOP-92 > 100 µM | HT-29 > 100 µM | Hs-578T > 100 µM | IGROV-1 > 100 µM | K562 > 100 µM | KM12 > 100 µM | LOX IMVI > 100 µM | M14 > 100 µM | MCF7 > 100 µM | MDA-MB-231 > 100 µM | MDA-MB-435 > 100 µM | MDA-N > 100 µM | MOLT-4 > 100 µM | NCI-H226 > 100 µM | NCI-H23 > 100 µM | NCI-H460 > 100 µM | NCI-H522 > 100 µM | NCI/ADR-RES > 100 µM | OVCAR-3 > 100 µM | OVCAR-4 > 100 µM | OVCAR-5 > 100 µM | OVCAR-8 > 100 µM | PC-3 > 100 µM | RPMI-8226 > 100 µM | RXF 393 > 100 µM | SF-268 > 100 µM | SF-295 > 100 µM | SF-539 > 100 µM | SK-MEL-28 > 100 µM | SK-MEL-2 > 100 µM | SK-MEL-5 > 100 µM | SK-OV-3 > 100 µM | SN12C > 100 µM | SNB-19 > 100 µM | SNB-75 > 100 µM | SR > 100 µM | SW-620 > 100 µM | T47D > 100 µM | TK-10 > 100 µM | U-251 > 100 µM | UACC-257 > 100 µM | UACC-62 > 100 µM | UO-31 > 100 µM
> 100 µM: HCT-15

S=C1SCN(C2CCCCCCCCCCC2)CN1C1CCCCCCCCCCC1
> 100 µM: HCT-15
inactive: 786-0 > 100 µM | A498 > 100 µM | A549 > 100 µM | ACHN > 100 µM | BT-549 > 100 µM | CAKI-1 > 100 µM | CCRF-CEM 34.4 µM | COLO 205 > 100 µM | DU-145 > 100 µM | EKVX > 100 µM | HCT-116 > 100 µM | HL-60 38.2 µM | HOP-62 67.6 µM | HOP-92 > 100 µM | HT-29 > 100 µM | Hs-578T > 100 µM | IGROV-1 > 100 µM | K562 > 100 µM | KM12 > 100 µM | LOX IMVI > 100 µM | M14 > 100 µM | MCF7 66.8 µM | MDA-MB-231 > 100 µM | MDA-MB-435 42.2 µM | MDA-N > 100 µM | MOLT-4 46.1 µM | Malme-3M > 100 µM | NCI-H226 > 100 µM | NCI-H23 > 100 µM | NCI-H460 > 100 µM | NCI-H522 67.5 µM | NCI/ADR-RES > 100 µM | OVCAR-3 34.7 µM | OVCAR-4 86.7 µM | OVCAR-5 > 100 µM | OVCAR-8 > 100 µM | PC-3 > 100 µM | RPMI-8226 47.5 µM | RXF 393 > 100 µM | SF-268 > 100 µM | SF-295 > 100 µM | SF-539 > 100 µM | SK-MEL-28 > 100 µM | SK-MEL-2 > 100 µM | SK-MEL-5 > 100 µM | SK-OV-3 > 100 µM | SN12C > 100 µM | SNB-19 > 100 µM | SNB-75 > 100 µM | SR 71.6 µM | SW-620 > 100 µM | T47D > 100 µM | TK-10 > 100 µM | U-251 > 100 µM | UACC-257 > 100 µM | UACC-62 97.9 µM | UO-31 > 100 µM

O=C(O)CCN1CCN(CCC(=O)O)CCN(CCC(=O)O)CC1
inactive: 786-0 79.6 µM | A498 > 100 µM | A549 69.3 µM | ACHN > 100 µM | BT-549 > 100 µM | CAKI-1 > 100 µM | CCRF-CEM > 100 µM | COLO 205 92.7 µM | DU-145 > 100 µM | EKVX > 100 µM | HCC 2998 > 100 µM | HCT-116 32.6 µM | HL-60 25.5 µM | HOP-62 > 100 µM | HOP-92 > 100 µM | HT-29 53.6 µM | Hs-578T > 100 µM | IGROV-1 > 100 µM | K562 36.3 µM | KM12 69.7 µM | LOX IMVI 82.8 µM | M14 > 100 µM | MCF7 98.2 µM | MDA-MB-231 > 100 µM | MDA-MB-435 > 100 µM | MDA-N > 100 µM | MOLT-4 > 100 µM | Malme-3M > 100 µM | NCI-H226 > 100 µM | NCI-H460 56.2 µM | NCI-H522 > 100 µM | NCI/ADR-RES > 100 µM | OVCAR-3 > 100 µM | OVCAR-4 > 100 µM | OVCAR-5 > 100 µM | OVCAR-8 > 100 µM | PC-3 > 100 µM | RPMI-8226 83.4 µM | SF-295 > 100 µM | SF-539 > 100 µM | SK-MEL-28 > 100 µM | SK-MEL-2 > 100 µM | SK-MEL-5 74 µM | SK-OV-3 > 100 µM | SN12C > 100 µM | SNB-19 > 100 µM | SNB-75 45.8 µM | SR 44.6 µM | SW-620 44.4 µM | T47D > 100 µM | TK-10 > 100 µM | U-251 > 100 µM | UACC-257 > 100 µM | UACC-62 > 100 µM | UO-31 > 100 µM
91.2 µM: HCT-15

Reference: ChEMBL document CHEMBL1201862, “PubChem BioAssay data set” (2004)
